Test results as given in US20200071310A1, “N-ARYL PYRAZOLES AS NRF2 REGULATORS” (GLAXOSMITHKLINE INTELLECTUAL PROPERTY DEVELOPMENT LIMITED, priority 2016, published 2020).

What follows are molecules tested against T1, Keap1 (321-609) Kelch domain / TAMRA-labeled NRF2 peptide (ETGE motif) (Homo sapiens, UniProt Q14145) (assay: NRF2-Keap1 FP Assay). Conditions: Keap1 (321-609) 20 nM, Tamra labeled peptide 8 nM.
T1 construct: the Kelch domain (321-609) of Keap1 is used
Format: binding
Text: One model for the NRF2-Keap1 interaction is through two binding sites in the Neh2 domain on NRF2. The two sites are referred to as the DLG binding motif (latch domain, uM affinity) and the ETGE binding motif (hinge domain, nM affinity). The Keap1 protein consists of an N-terminal region (NTR), a broad complex, tramtrack, and brick a' brac domain (BTB), an intervening region (IVR), a double glycine repeat domain (DGR or Kelch), and a C-terminal region. The DLG and ETGE motifs of NRF2's Neh2 domain bind to the Kelch domain of Keap1 at different affinities. In the Keap1 Kelch fluorescence polarization (FP) assay, a TAMRA-labeled 16mer peptide (AFFAQLQLDEETGEFL) containing the ETGE motif of NRF2 and the Kelch domain (321-609) of Keap1 is used. The assay determines if a compound interferes with the binding between Keap1 […] and the TAMRA-labeled peptide. Binding of TAMRA-labeled NRF2 peptide to Keap1 (321-609) results in a high FP signal. If a compound interferes with the binding between the peptide and the protein, it will cause the assay signal to decrease. Thus, assay signal is inversely proportional to binding inhibition.
100 nl of 100× compound dose response curves (serial 3-fold dilutions) in DMSO were stamped using an Echo liquid handling system (Labcyte) into 384-well low volume black assay plates (Greiner, #784076), with DMSO in columns 6 and 18. The top concentration of compound was located in columns 1 and 13. Keap1 (321-609) was diluted to 40 nM (2×) in 1× assay buffer (50 mM Tris, pH 8.0, 100 mM NaCl, 5 mM MgCl2, 1 mM DTT, 2 mM CHAPS, and 0.005% BSA) and 5 ul was added using a Multidrop Combi (Thermo Electron Corporation) equipped with a metal tip dispenser to all wells of the compound plate, except column 18. Column 18 received only 5 ul of assay buffer. Immediately, 5 uL of 16 nM (2×) of Tamra labeled peptide (AFFAQLQLDEETGEFL, 21st Century Biochemicals) was added to all wells of the plate. The plates were spun at 500 rpm for 1 min, incubated for 1 hr at room temperature, and read on an Analyst GT (Molecular Devices) equipped with excitation (530/25 nm) and emission (580/10 nm) filters designed for Tamra probes. A 561 nm dichroic mirror was also used in the Analyst. The final assay concentrations of Keap1l (321-609) and Tamra labeled peptide were 20 nM and 8 nM, respectively. Fluorescence measurements, represented as mP, were used in the transformation of the data. Compound activity was calculated based on percent inhibition, normalized against controls in the assay (Control 1 contains the Tamra peptide and Keap1 (321-609) together (0% response) and control 2 contains the Tamra peptide alone (100% response)). Data analysis was handled using the software package Abase XE (Surrey, United Kingdom. The % inhibition values were calculated by the equation:
100−(100*((compound response−average control 2)/(average control 1−average control2))).
For calculation of pIC50s, Abase XE used a four parameter equation.
IC50s<1 nM (+++++), IC50s 1 nM-10 nM (++++), IC50s 10-100 nM (+++), IC50s 100 nM-1 μM (++), IC50s 1-10 μM (+), IC50s>10 μM (−), or were not determined (ND).

T1 sequence (Q14145 321-609): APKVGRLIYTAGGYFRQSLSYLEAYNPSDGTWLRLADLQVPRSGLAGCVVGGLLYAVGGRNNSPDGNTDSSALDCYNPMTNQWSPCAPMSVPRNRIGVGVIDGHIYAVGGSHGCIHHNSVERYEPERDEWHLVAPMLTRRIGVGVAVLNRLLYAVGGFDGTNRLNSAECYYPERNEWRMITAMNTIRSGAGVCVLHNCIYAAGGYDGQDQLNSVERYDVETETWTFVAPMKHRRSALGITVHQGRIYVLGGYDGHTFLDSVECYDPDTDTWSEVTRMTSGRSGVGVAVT

| Compound | EC50 [nM] |
| --- | --- |
| CC[C@@H]1CN(Cc2cccc(-n3ncc(C(=O)O)c3[C@@H]3C[C@H]3c3cn(C)nn3)c2)Cc2ccccc2O1 (racemic) [Example 14] | 100 to 1000 |
| Cn1cc([C@@H]2C[C@H]2c2c(C(=O)O)cnn2-c2cccc(Cn3ccnc3CC3CCCCCC3)c2)nn1 (racemic) [Example 23] | 1 to 10 |
| Cn1cc([C@@H]2C[C@H]2c2c(C(=O)O)cnn2-c2cccc(Cn3ccnc3CN3CCCCC3)c2)nn1 (racemic) [Example 24] | 10 to 100 |
| CCCCCCN(Cc1cccc(-n2ncc(C(=O)O)c2[C@@H]2C[C@H]2c2cn(C)nn2)c1)S(=O)(=O)c1cccc(-c2ccccc2)c1 (racemic) [Example 34, 1-(3-((N-hexyl-[1,1′-biphenyl]-3-ylsulfonamido)methyl)phenyl)-5-((trans)-2-(1-methyl-1H-1,2,3-triazol-4-yl)cyclopropyl)-1H-pyrazole-4-carboxylic acid] | 1 to 10 |
| CN(Cc1cccc(-n2ncc(C(=O)O)c2[C@@H]2C[C@H]2c2cn(C)nn2)c1)S(=O)(=O)c1cccc(Oc2ccccc2)c1 (racemic) [Example 35, 5-((trans)-2-(1-methyl-1H-1,2,3-triazol-4-yl)cyclo-propyl)-1-(3-((N-methyl-3-phenoxy-phenyl-sulfonamido)-methyl)phenyl)-1H-pyrazole-4-carboxylic acid] | 10 to 100 |
| CCCCCCN(Cc1cccc(-n2ncc(C(=O)O)c2[C@@H]2C[C@H]2c2cn(C)nn2)c1)S(=O)(=O)c1ccccc1C (racemic) [Example 37, 1-(3-((N-hexyl-2-methylphenylsulfonamido)methyl)phenyl)-5-((trans)-2-(1-methyl-1H-1,2,3-triazol-4-yl)cyclo-propyl)-1H-pyrazole-4-carboxylic acid] | 10 to 100 |
| COc1ccc(Cl)cc1S(=O)(=O)N(C)Cc1cccc(-n2ncc(C(=O)O)c2[C@@H]2C[C@H]2c2cn(C)nn2)c1 (racemic) [Example 40, 1-(3-((5-chloro-2-methoxy-N-methylphenyl-sulfonamido)-methyl)phenyl)-5-((trans)-2-(1-methyl-1H-1,2,3-triazol-4-yl)cyclo-propyl)-1H-pyrazole-4-carboxylic acid] | 100 to 1000 |
| Cc1ccccc1S(=O)(=O)N(C)Cc1cccc(-n2ncc(C(=O)O)c2[C@@H]2C[C@H]2c2cn(C)nn2)c1 (racemic) [Example 42, 1-(3-((N,2-dimethylphenylsulfonamido)methyl)phenyl)-5-((trans)-2-(1-methyl-1H-1,2,3-triazol-4-yl)cyclopropyl)-1H-pyrazole-4-carboxylic acid] | 100 to 1000 |
| COc1ccc(Br)cc1S(=O)(=O)N(C)Cc1cccc(-n2ncc(C(=O)O)c2[C@@H]2C[C@H]2c2cn(C)nn2)c1 (racemic) [Example 43, 1-(3-((5-bromo-2-methoxy-N-methylphenylsulfonamido)methyl)phenyl)-5-((trans)-2-(1-methyl-1H-1,2,3-triazol-4-yl)cyclopropyl)-1H-pyrazole-4-carboxylic acid] | 100 to 1000 |
| COc1cc([N+](=O)[O-])ccc1S(=O)(=O)N(C)Cc1cccc(-n2ncc(C(=O)O)c2[C@@H]2C[C@H]2c2cn(C)nn2)c1 (racemic) [Example 44, 1-(3-((2-methoxy-N-methyl-4-nitrophenylsulfonamido)methyl)phenyl)-5-((trans)-2-(1-methyl-1H-1,2,3-triazol-4-yl)cyclopropyl)-1H-pyrazole-4-carboxylic acid] | 100 to 1000 |
| CCOc1ccccc1S(=O)(=O)N(C)Cc1cccc(-n2ncc(C(=O)O)c2[C@@H]2C[C@H]2c2cn(C)nn2)c1 (racemic) [Example 45, 1-(3-((2-ethoxy-N-methylphenylsulfonamido)methyl)phenyl)-5-((trans)-2-(1-methyl-1H-1,2,3-triazol-4-yl)cyclopropyl)-1H-pyrazole-4-carboxylic acid] | 100 to 1000 |
| COc1ccccc1S(=O)(=O)N(C)Cc1cccc(-n2ncc(C(=O)O)c2[C@@H]2C[C@H]2c2cn(C)nn2)c1 (racemic) [Example 47, 1-(3-((2-methoxy-N-methylphenylsulfonamido)methyl)phenyl)-5-((trans)-2-(1-methyl-1H-1,2,3-triazol-4-yl)cyclopropyl)-1H-pyrazole-4-carboxylic acid] | 100 to 1000 |

Other lines, results leading:

| EC50 [nM] | Compound |
| --- | --- |
| 1 to 10 | Cn1cc([C@@H]2C[C@H]2c2c(C(=O)O)cnn2-c2cccc(CN3CC(C)(C)Oc4ccc(F)cc4S3(=O)=O)c2)nn1 (racemic) [Example 5] |
| 10 to 100 | Cn1cc([C@@H]2C[C@H]2c2c(C(=O)O)cnn2-c2cccc(CN3Cc4ccccc4CC(C)(C)C3)c2)nn1 (racemic) [Example 7] |
| 10 to 100 | Cn1cc([C@@H]2C[C@H]2c2c(C(=O)O)cnn2-c2cccc(CN3Cc4ccccc4OC(C)(C)C3)c2)nn1 (racemic) [Example 8] |
| 10 to 100 | Cn1cc([C@@H]2C[C@H]2c2c(C(=O)O)cnn2-c2cccc(CN3Cc4ncccc4OC(C)(C)C3)c2)nn1 (racemic) [Example 9] |
| 1 to 10 | Cn1cc([C@@H]2C[C@H]2c2c(C(=O)O)cnn2-c2cccc(CN3Cc4cc(Br)ccc4OC(C)(C)C3)c2)nn1 (racemic) [Example 13] |
| 1 to 10 | C[C@H]1Cc2ccc(C(F)(F)F)cc2S(=O)(=O)N(Cc2cccc(-n3ncc(C(=O)O)c3[C@@H]3C[C@H]3c3cn(C)nn3)c2)C1 (racemic) [Example 16, 1-(3-((4-methyl-1,1-dioxido-8-(trifluoromethyl)-4,5-dihydro-benzo[f][1,2]thiazepin-2(3H)-yl)methyl)phenyl)-5-((trans)-2-(1-methyl-1H-1,2,3-triazol-4-yl)cyclopropyl)-1H-pyrazole-4-carboxylic acid] |
| 1 to 10 | C[C@H]1Cc2ccc(Br)cc2S(=O)(=O)N(Cc2cccc(-n3ncc(C(=O)O)c3[C@@H]3C[C@H]3c3cn(C)nn3)c2)C1 (racemic) [Example 17, 1-(3-((8-bromo-4-methyl-1,1-dioxido-4,5-dihydrobenzo[f][1,2]thiazepin-2(3H)-yl)methyl)phenyl)-5-((trans)-2-(1-methyl-1H-1,2,3-triazol-4-yl)cyclopropyl)-1H-pyrazole-4-carboxylic acid] |
| 1 to 10 | C[C@@H]1Cc2cc(C(F)(F)F)ccc2S(=O)(=O)N(Cc2cccc(-n3ncc(C(=O)O)c3[C@@H]3C[C@H]3c3cn(C)nn3)c2)C1 (racemic) [Example 18, 1-(3-((4-methyl-1,1-dioxido-7-(trifluoromethyl)-4,5-dihydro-benzo[f][1,2]thiazepin-2(3H)-yl)methyl)phenyl)-5-((trans)-2-(1-methyl-1H-1,2,3-triazol-4-yl)cyclopropyl)-1H-pyrazole-4-carboxylic acid] |
| 100 to 1000 | C[C@H]1Cc2cc(C(F)(F)F)ccc2S(=O)(=O)N(Cc2cccc(-n3ncc(C(=O)O)c3[C@@H]3C[C@H]3c3cn(C)nn3)c2)C1 (racemic) [Example 19, 1-(3-((4-methyl-1,1-dioxido-7-(trifluoromethyl)-4,5-dihydro-benzo[f][1,2]thiazepin-2(3H)-yl)methyl)phenyl)-5-((trans)-2-(1-methyl-1H-1,2,3-triazol-4-yl)cyclopropyl)-1H-pyrazole-4-carboxylic acid] |
| 100 to 1000 | CN(Cc1cccc(-n2ncc(C(=O)O)c2[C@@H]2C[C@H]2c2cn(C)nn2)c1)S(=O)(=O)c1c(Cl)cccc1C(F)(F)F (racemic) [Example 41, 1-(3-((2-chloro-N-methyl-6-(trifluoro-methyl)phenyl-sulfonamido)-methyl)phenyl)-5-((trans)-2-(1-methyl-1H-1,2,3-triazol-4-yl)cyclo-propyl)-1H-pyrazole-4-carboxylic acid] |
| 100 to 1000 | CN(Cc1cccc(-n2ncc(C(=O)O)c2[C@@H]2C[C@H]2c2cn(C)nn2)c1)S(=O)(=O)c1ccccc1OC(F)(F)F (racemic) [Example 46, 5-((trans)-2-(1-methyl-1H-1,2,3-triazol-4-yl)cyclopropyl)-1-(3-((N-methyl-2-(trifluoromethoxy)phenylsulfonamido)methyl)phenyl)-1H-pyrazole-4-carboxylic acid] |
